Measurements reported in ChEMBL document CHEMBL3507680, “University of Dundee, Gates Library screen for HepG2 cell viability”.

Test: Human HepG2 cell viability assay in 384 well format
Assay type: toxicity, cell-based
Design: dose 125 nL, time 70.5 hour; cytotoxicity at 70.5 h: concentration not given beside the values
Settings: HepG2 cells, read-out: Inhibition

SMILES	cytotoxicity at 70.5 h [%]
Cc1cc(CN2CCC3(CC2)CC(C(=O)O)N(C(=O)C2CC2)C3)oc1C (stereo not drawn)	-13.7
CC(C)c1noc(C2CCCN2C(=O)Cc2cn3ccsc3n2)n1 (stereo not drawn)	-9.25
CN(C)CC(=O)N1CCC2(CCc3cc(-c4cccnc4)ccc32)CC1	-0.278
Cc1cn(CC(=O)NC2CCN(C(=O)C3CC3)CC2)c2ccccc12	-9.4
Cc1cc(CN(C)C(=O)CN2CC3(CCNCC3)OC2=O)no1	-15.9
COC(=O)c1sc2cccc(F)c2c1CNC(=O)C1CCCO1 (stereo not drawn)	6.87
CC(C)(C)OC(=O)NCC1CCN(C(=O)c2ccccc2O)C1 (stereo not drawn)	-0.832
CS(=O)(=O)c1ccc(-c2nc(C(=O)N3CCCC3)n3ccccc23)cc1	-8.24
CN1CC(Oc2ccccc2)=NC(SCC(=O)Nc2ccc(Cl)cc2)=N1	0.871
COCCN1CCO[C@@H]2CN(Cc3sccc3C)C[C@@H]2C1	1.15
C[C@H](NC(=O)N1CCC(Cc2ccccc2)CC1)C(=O)O	-12.5
Cc1cc(C(=O)NCc2ccnc(OCC(F)(F)F)c2)on1	16.2
CC(=O)N(Cc1ncc(C)o1)C1CCN(Cc2ccccc2F)C1 (stereo not drawn)	-2.68
CNC(=O)CC1CC2(CCNCC2)c2cc(F)ccc21 (stereo not drawn)	-3.61
COc1ccc(C(=O)N2CCCC3(CCCC(=O)N3C)C2)cc1 (stereo not drawn)	-6.78
Cc1ccccc1CN1C[C@@H]2CC[C@H](C1)N(CC1CCC1)C2=O	-4.63
Cn1cc(-c2nc(C(=O)N3CCCC3c3cnn(C)c3)cs2)cn1 (stereo not drawn)	-5.1
Cc1ccc(-c2nnc(CNC(=O)c3cccnc3)o2)cn1	-16.3
COC(=O)CCNC(=O)c1cccc(C(=O)N(C)c2ccccc2)c1	31.4
Cc1ccc(CN2CCC3(CC2)CN(c2cnn(C)c2)C(=O)CO3)o1	-9.82
Cc1nc2ccccc2c(=O)n1CCC(=O)N1CCCCCC1	1.78
Cc1nc(C)n(CC2CN(CCn3cccn3)CCO2)n1 (stereo not drawn)	31.9
N#Cc1ccc(SCCC(=O)Nc2ccc(CC(N)=O)cc2)cc1	6.57
COc1cn(CC(=O)N2CCC(c3ccccc3)CC2)c(C)cc1=O	23.7
CCc1c(C)nc2cc(C3CCN(Cc4cccnc4)C3)nn2c1O (stereo not drawn)	-5.28
Cc1nn(C)c2ncc(S(=O)(=O)N3CCCC(C(N)=O)C3)cc12 (stereo not drawn)	-6.46

SMILES	cytotoxicity at 70.5 h [%]
CCN1CCC(N[C@@H]2CC[C@@H]2NC(=O)Cc2csc(C)n2)CC1	-1.08
Cn1cccc1C(=O)NC[C@]12COC[C@H]1CN(Cc1nccs1)C2	-15.1
O=C(c1ccoc1)N1CCCC1C1CCN(Cc2ccccc2)CC1 (stereo not drawn)	23.5
CN1CCN(CCCNC(=O)C2CCCCC2)CC1	12.1
CCn1ncnc1CN1CCc2[nH]cnc2C1Cc1ccccc1 (stereo not drawn)	-5.67
CO[C@H]1C[C@@H]2CN(C(=O)Cc3ccc(C)s3)C[C@@H]2C1	-2.91
CCOCc1ncn2c1CN(C(=O)Nc1ccc(CC)cc1)CC2	14.1
O=C(C1CC=CC1)N1CCc2c(COCc3ccncc3)cncc2C1	-10.9
CC(CN1CCCC1=O)NC(=O)c1ccc(C(F)(F)F)[nH]c1=O (stereo not drawn)	-74.6
CC(C)[C@H](Nc1cc(-c2ccncc2)nc2ccnn12)C(N)=O	6.65
COc1ccnc(CN2CCC(O)(c3ccc(C)cn3)CC2)c1OC	-5.69
COCCN1CCN(C(=O)c2ccccc2C(C)=O)[C@H]2CS(=O)(=O)C[C@H]21	-5.79
Cc1nc2c(C(=O)O)cccc2n1-c1ccc(C(=O)N2CCCC2)o1	7.08
Cc1cc(N2CC(c3n[nH]c4nccnc34)C2)ncn1	-9.37
CC(C)n1cc(S(=O)(=O)N2CCCC(N3CCCCC3)C2)cn1 (stereo not drawn)	-16.1
Nc1nc(N2CCCCCC2)ncc1C(=O)NCc1ccc(F)c(Cl)c1	-10.8
c1cnc(-c2nc(CN3CCCC3Cn3cncn3)cs2)nc1 (stereo not drawn)	-5.35
CC(C)COCCC(=O)NCCC(=O)N1CCN(c2ccccn2)CC1	-2.77
COCCN(C)C(=O)c1nc2c(s1)CCCN2S(C)(=O)=O	3.66
O=C(c1ccnnc1)N1CCCn2nnc(COCC3CC3)c2C1	6.34
CCOCC(O)CN1CCN(C(=O)c2ccc3c(c2)COC3)CC1 (stereo not drawn)	-8.02
Cc1nc(CC(=O)N2CCN(CCOc3ccccc3)CC2)cs1	-10.1
CN(C)C(=O)N1C[C@@H](C(=O)NCc2ccco2)C[C@H]2OCC[C@H]21	-4.06
Cc1cc(C)n(CCNCc2cc(-c3ccc(F)cc3)c[nH]c2=O)n1	1.4
CN(Cc1cccc(-n2cccn2)c1)C(=O)c1cccc(N(C)C)c1	-10.6
Cc1ccc(N2CCCc3sc(C(=O)NCc4ccc(C)o4)nc32)nn1	-6.21

SMILES	cytotoxicity at 70.5 h [%]
COCC(=O)N1CCCC1c1cccc(Nc2ncc(C)s2)n1 (stereo not drawn)	0.0728
c1cc(CO[C@H]2CC[C@H]3[C@H]2OCCN3Cc2nccs2)ccn1	-2.27
COCc1noc(-c2ccc(N(C)Cc3cn(C)nc3C)nc2)n1	-5.15
CC(C)(C)C(=O)N1CCN(CCOc2cccc(C#N)c2)CC1	-5.91
N#Cc1cccc(N2CCC3(CCC(=O)N(CC(N)=O)C3)CC2)n1	-8.42
Cc1cc(CCC(=O)N2CC[C@H](O)C2)ccc1Br	1.1
CC(C)(C)c1cc(C(=O)NCCN2CCCS2(=O)=O)[nH]n1	-14.3
Cc1[nH]ncc1CCCNC(=O)N1CCC(C(N)=O)CC1	-4.17
CCn1c(C)cc(C(=O)N2CCC(NC(=O)c3ccc(C)o3)CC2)c1C	-89.5
Cc1nc(CN2C(=O)CC[C@@H]3[C@H]2CCN3C2CCOCC2)cs1	-2.88
CNC(=O)c1cnc(/C=C/c2cc(OC)c(O)c(OC)c2)s1	-12.6
Cn1ncc2c1CCCN(C(=O)C1CCCC1)C2	-0.407
Cc1cc(=O)[nH]c(-n2nc(C)c(CCC(=O)NCC(C)C)c2C)n1	-4.48
Cc1ccc(N(CCC#N)C(=O)CN2CCCC2c2ccsc2)cc1C (stereo not drawn)	0.542
O=C(O)c1cccnc1CN(Cc1ccsc1)C1CC1	-6.7
CC1(NC(=O)Cc2csc(-c3cccc(Cl)c3)n2)CCS(=O)(=O)C1 (stereo not drawn)	-63.1
CC(C)NC(=O)N1C[C@H]2C[C@H](C(=O)N3CCCC3)[C@@H](C1)O2	21.9
CN(Cc1cccs1)C(=O)CN1C(=O)c2cc(Cl)c(Cl)cc2C1=O	-13.1
O=c1[nH]c(CCN2CCCCC2Cn2cccn2)nc2ccccc12 (stereo not drawn)	-1.7
COC(=O)c1ccc(CN[C@@H]2COC[C@H]2Cc2cc(C)no2)cc1	-4.83
Cc1cc(CN(C)C(=O)c2cccc(N3CCCS3(=O)=O)c2)no1	-12.6
Cc1n[nH]c(C)c1-c1cnc(CC2CCCN(S(C)(=O)=O)C2)cn1 (stereo not drawn)	-10.2
CC1c2ncc(Cn3cncn3)n2CCN1C(=O)[C@H]1CCCO1 (stereo partly drawn)	-8.44
Cc1ccc(CNc2cc(N3CCCC3CO)ncn2)s1 (stereo not drawn)	-0.592
Cc1nc(CNCc2c(C)nn(C)c2N2CCOCC2)cs1	-15.5
O=C([C@@H]1COC[C@H]2CN(C3CCCC3)C[C@H]21)N1CCC(F)CC1	-1.78
